For one series, the target named is T1, Human 11β HSD1 (Homo sapiens, UniProt P28845).
T1 construct: human hepatic microsomes were obtained from XenoTech, product H0610/Lot 0210078; tissue XenoTech H0610/Lot 0210078; host or cells: human liver (hepatic microsomes)
In words: biochemical. The class given is biochemical. Conditions: Lineweaver-Burke plot, RIA detection, buffer 3, 10 μg/well microsomal protein, 30 min (FIG. 20); read-out: apparent Km. The protocol:
Standard Operating Procedure for the 11β-Hydroxysteroid Dehydrogenase Type 1 cortisol Radioimmunoassay (11β HSD1 Cortisol RIA).
30 mM Tris-HCL, pH 7.2 containing 1 mM EDTA.
50 mM Tris-HCL, pH 8, containing 0.1 M NaCl and 0.1% gelatin.
Prepare 10 mM stock solutions in 100% DMSO at 100 times the required assay concentration. Dilute into assay buffer 1 in 25. Also dilute neat DMSO 1 in 25 into assay buffer for controls.
Dilute this 1 in 50 into assay buffer.
Prepare NADPH as a 1.8 mg/ml solution in assay buffer.
Mix these 3solutions 1:1:1 to make a solution of sufficient volume for 25 μl additions to each sample. Add 0.5 μCi tritiated cortisone per 25 μl and mix the solution well.
Dilute stock 20 mg/ml solution 1 in 100 with assay buffer.
Dilute stock antibody solution to 17 μg/ml in antibody binding buffer.
Make a 20 mg/ml solution in antibody binding buffer and chill on ice.
To a u-bottom polypropylene 96 well plate add: • 25 μl compound dilution or diluted DMSO to controls, NSB's and blanks • 10 μl 1 mM GA in DMSO (enzyme stop solution) to blanks • 25 μl substrate mixture to all samples • 50 μl diluted microsomes to all samples • Incubate plate for 30 min at 37° C. shaking p0 Add 10 μl enzyme stop solution to all wells except the blanks • Add 100 μl antibody solution to all wells except the NSB's, add antibody binding buffer to these wells • Incubate at 37° C. for 1 h • Chill plate on ice for 15 min • Add 50 μl/well charcoal solution and mix with an 8-channel pipette (4-5 aspirations) • Chill the plate on ice • Centrifuge at 4° C., 2000×g for 15 min • Transfer 100 μl supernatant into an Optiplate, also add 25 μl substrate mixture to 2 empty wells to indicate counting efficiency • Add 200 μl Microscint-40 to all wells and count on a Topcount Radioimmunoassay
The 11β HSD1 enzyme assay was carried out following the standard operating procedure described above in u-bottom polypropylene 96 well plates or 1.5 ml Eppendorf tubes as indicated for each experiment. Subsequent to stopping the enzyme reaction, 100 μl antibody prepared in buffer 3 unless otherwise indicated was added to test samples and 100 μl buffer 3 was added to the NSB samples. The samples were incubated for 1 hour at 37° C. and the chilled on ice for 15 mins. Dextran coated charcoal (50 μl/sample) prepared to the indicated concentration in buffer 3 was added and the samples were mixed (vortex for tubes and aspiration 5 times with an 8-channel pipette for 96 well plates) and chilled for a further 10 min. The samples were centrifuged at 2000×g for 15 min at 4° C. to pellet the charcoal. Aliquots of the supernatant (100 μl) were transferred to an Optiplate and counted on the Topcount in 150-200 μl Microscint 40. In some experiments, aliquots of supernatant were transferred to scintillation vials and counted on the Tricarb LSC in 5 ml Ultima Gold scintillant.

Series [1] addresses T2, human hepatic microsomal 11β HSD1 (Homo sapiens, UniProt P28845).
T2 construct: human hepatic microsomes were obtained from XenoTech, product H0610/Lot 0210078; tissue XenoTech H0610/Lot 0210078; host or cells: human liver (hepatic microsomes)
The class given is biochemical. Conditions: Lineweaver-Burke plot, 10 μg microsomal protein, 30 min at 37° C., Buffer 1 (FIG. 6); read-out: apparent Km for cortisone.
Experimental: Assay of Human and Rat Hepatic Microsomal 11β-HSD1 Activity using a TLC Separation of Substrate from Product
The assay was carried out in Buffer 2 and the cortisone concentration used was 2 μM containing 0.5 μCi per incubation ^3H-cortisone. Rat and human hepatic microsomes were tested at concentrations ranging from 400 μg to 50 μg microsomal protein per incubation in a final incubation volume of 100 μl in glass tubes. Buffer was substituted for microsomal protein for blanks. Samples were incubated for 1 h in a shaking water bath at 37° C. and the assay was stopped by the addition of 1 ml ethyl acetate. To correct for recovery, 50 μl ^14C-cortisol (approximately 4000 DPM per tube) was added to the samples followed by 200 μl 0.05% CaCl2. […] The upper organic phase was removed into clean tubes and dried down. […] DPM were measured on a TriCarb liquid scintillation counter using a dual label programme. Recovery was determined from the DPM obtained in 50 μl ^14C-cortisol solution which was counted with the samples.
In the next test, the same assay method was followed except that only human hepatic microsomes were examined and the concentration range of these was from 3.7 μg per sample to 100 μg per sample. The samples were incubated for 60 min, 45 min, 30 min or 15 min in a shaking water bath at 37° C. and were stopped, extracted and the substrate and product were separated as detailed above. […]

26 molecules from patent US7230020B2, “11β-hydroxysteroid dehydrogenase inhibitors” (priority 2003, dated 2007) can be followed below.

T1 sequence (P28845 whole entry): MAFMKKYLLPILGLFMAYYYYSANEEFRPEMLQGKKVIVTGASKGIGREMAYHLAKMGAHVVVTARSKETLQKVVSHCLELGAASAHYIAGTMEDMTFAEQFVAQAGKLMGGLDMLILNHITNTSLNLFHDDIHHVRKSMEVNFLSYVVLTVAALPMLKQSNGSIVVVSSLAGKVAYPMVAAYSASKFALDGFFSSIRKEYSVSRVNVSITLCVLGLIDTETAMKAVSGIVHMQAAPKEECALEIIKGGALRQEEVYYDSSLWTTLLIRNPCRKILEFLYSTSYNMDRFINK
T2 sequence (P28845 whole entry): as above

For `CC1Nc2ccc(NC(=O)c3ccc(-c4ccccc4)cc3)cc2N1C` (stereo not drawn), the melting point was in the range of 270 to 270.3 °C.

`Cc1nc2cc(NC(=O)c3ccc(Cl)cc3Cl)ccc2n1C` registered a melting point of 275 to 277 °C.

Molecule `Cc1nc2c(Cl)c(NC(=O)c3cc(Cl)cc(Cl)c3)ccc2s1` yielded a melting point of 252 to 253 °C.

For the molecule `CCCc1ccc(C(=O)Nc2ccc3sc(C)nc3c2Cl)cc1`, the melting point came out at 184 °C.

The molecule `Cc1nc2c(Cl)c(NC(=O)c3cc(Cl)ccc3Cl)ccc2s1` gave a melting point of 175 °C.

The molecule `COc1ccc(CC(=O)Nc2ccc3sc(C)nc3c2Cl)cc1` returned a melting point of 173 to 174 °C.

The molecule `COc1cccc(C(=O)Nc2ccc3sc(C)nc3c2Cl)c1` registered a melting point of 177 to 179 °C.

Molecule `COc1ccc(C(=O)Nc2ccc3sc(C)nc3c2Cl)cc1` gave a melting point of 182 °C.

Consider `COc1cccc(CC(=O)Nc2ccc3sc(C)nc3c2Cl)c1`, for which the melting point was 147 to 148 °C.

As to `Cc1nc2c(Cl)c(NC(=O)Cc3ccc(Cl)cc3)ccc2s1`, the melting point lay within 227 to 229 °C.

On to `O=C(NCCc1cccs1)c1ccc(-c2ccccc2)cc1`, for which the melting point was 164 to 166 °C.

`O=C(NCCc1cccs1)c1cc(Cl)cc(Cl)c1` came in with a melting point of 100 to 102 °C.

In turn, `O=C(NCCc1cccs1)c1cc(Cl)ccc1Cl` registered a melting point of 99 to 100 °C.

For `O=C(Nc1ccc2c(c1)CCC2=O)c1ccc(-c2ccccc2)cc1`, the melting point was 217 to 219 °C.

Regarding `CCCc1ccc(C(=O)Nc2ccc3c(c2)CCC3=O)cc1`, the melting point was in the range of 181 to 184 °C.

On to `COc1cccc(C(=O)Nc2ccc3c(c2)CCC3=O)c1`, for which the melting point lay within 203 to 204 °C.

Consider `O=C(Nc1ccc(C(=O)c2ccccc2)cc1)c1ccc(-c2ccccc2)cc1`, for which the melting point lay within 212 to 213 °C.

As for `O=C(c1ccccc1)c1ccc(NC(=O)c2cc(Cl)ccc2Cl)cc1`, the melting point is 150 to 153 °C.

Molecule `COc1ccc(C(=O)Nc2ccc(C(=O)c3ccccc3)cc2)cc1` had a melting point of 171 to 174 °C.

In turn, `CC(=O)c1ccc(NC(=O)c2cc(Cl)cc(Cl)c2)cc1` had a melting point of 199 to 200 °C.

Regarding `CCCc1ccc(C(=O)Nc2ccc3c(c2)CCCC3=O)cc1`, the melting point fell in the range of 168 to 170 °C.

On to `COc1cccc(C(=O)Nc2ccc3c(c2)CCCC3=O)c1`, for which the melting point fell in the range of 142 to 143 °C.

Take `Cc1nc2cc(NC(=O)c3cc(Cl)cc(Cl)c3)ccc2s1`: the melting point was determined as 194 °C.

`CCCc1ccc(S(=O)(=O)NCc2ccccn2)cc1` displayed a melting point of 109 °C.

In turn, `COC(=O)c1cc2cc(NS(=O)(=O)c3cccc(Cl)c3C)ccc2o1` came in with a melting point of 168 to 168.4 °C.

In the case of `C[C@]12CCC(=O)C=C1CC[C@@H]1[C@@H]2C(=O)C[C@@]2(C)[C@H]1CC[C@]2(O)C(=O)CO` [cortisone, Cortisone], the Km stood at 700 nM on Human 11β HSD1 and 660 nM in series [1].
